Consider seven molecules from ChEMBL document CHEMBL1129762, “Synthesis and antibacterial activity of 4- and 8-methoxy trinems” (1996).

Molecules are shown by their SMILES.

Type in all cases: functional
Assay [1] has as its system Escherichia coli. As to the kind of experiment: In vitro antibacterial activity against Escherichia coli 1850.
In assay [2] the test system is Staphylococcus aureus. As to the kind of experiment: In vitro antibacterial activity against Staphylococcus aureus 853.
A further assay has as its system Clostridium perfringens. As to the kind of experiment: In vitro antibacterial activity against Clostridium perfringens 615E.
For a further assay, the system named is Enterococcus faecalis. As to the kind of experiment: In vitro antibacterial activity against Enterococcus faecalis 850.
Assay [3] concerns Escherichia coli. As to the kind of experiment: In vitro antibacterial activity against Escherichia coli 1919.
The subject of assay [4] is Staphylococcus aureus. As to the kind of experiment: In vitro antibacterial activity against Staphylococcus aureus 663E.

For orientation: MIC means the least concentration at which growth counts as inhibited.

As for `CO[C@@]12CCCCC1=C(C(=O)[O-])N1C(=O)[C@H]([C@@H](C)O)[C@H]12.[K+]`, the MIC was 8 µg/mL against Escherichia coli [1]; 4 µg/mL against Staphylococcus aureus [2]; 2000 µg/mL in the assay with Clostridium perfringens; 16 µg/mL in the assay on Enterococcus faecalis; 4 µg/mL in the assay on Escherichia coli [3]; 4 µg/mL against Staphylococcus aureus [4].
On to `CO[C@H]1CCC[C@@H]2C1=C(C(=O)[O-])N1C(=O)[C@H]([C@@H](C)O)C21.[K+]` (some centres not stated), for which the MIC in the assay with Escherichia coli [1] was 32 µg/mL; against Staphylococcus aureus [2] it was 1 µg/mL; with Clostridium perfringens it was 4000 µg/mL; against Enterococcus faecalis, 32 µg/mL; against Escherichia coli [3], 16 µg/mL; against Staphylococcus aureus [4], 2 µg/mL.
`CO[C@]12CCCCC1=C(C(=O)[O-])N1C(=O)[C@H]([C@@H](C)O)[C@H]12.[K+]`: the MIC came out at 32 µg/mL with Escherichia coli [1]; 8 µg/mL in the assay on Staphylococcus aureus [2]; 2000 µg/mL with Clostridium perfringens; 32 µg/mL with Enterococcus faecalis; 8 µg/mL in the assay on Escherichia coli [3]; 4 µg/mL in the assay on Staphylococcus aureus [4].
On to `CO[C@H]1CCC[C@H]2C1=C(C(=O)[O-])N1C(=O)[C@H]([C@@H](C)O)C21.[K+]` (some centres not stated), for which the minimum inhibitory concentration (MIC) against Escherichia coli [1] worked out at 0.5 µg/mL; in the assay with Staphylococcus aureus [2], 0.25 µg/mL; against Clostridium perfringens, 30 µg/mL; against Enterococcus faecalis it was 1 µg/mL; with Escherichia coli [3], 0.5 µg/mL; in the assay on Staphylococcus aureus [4], 0.25 µg/mL.
Turning to `CO[C@@H]1CCC[C@H]2C1=C(C(=O)[O-])N1C(=O)[C@H]([C@@H](C)O)C21.[K+]` (some centres not stated), the MIC was determined as 1 µg/mL with Escherichia coli [1]; 0.5 µg/mL against Staphylococcus aureus [2]; 120 µg/mL against Clostridium perfringens; 8 µg/mL in the assay with Enterococcus faecalis; 4 µg/mL against Escherichia coli [3]; 0.5 µg/mL with Staphylococcus aureus [4].
`CO[C@@H]1CCC[C@@H]2C1=C(C(=O)[O-])N1C(=O)[C@H]([C@@H](C)O)C21.[K+]` (some centres not stated): the MIC in the assay with Escherichia coli [1] was 16 µg/mL; in the assay with Staphylococcus aureus [2] it was 2 µg/mL; with Clostridium perfringens it was 1000 µg/mL; in the assay on Enterococcus faecalis it was 32 µg/mL; with Escherichia coli [3], 16 µg/mL; in the assay with Staphylococcus aureus [4], 2 µg/mL.
As to `C[C@@H](O)[C@H]1C(=O)N2C(C(=O)O)=C(SCCNC=N)C[C@H]12.O` [IMIPENEM], the minimal inhibitory concentration (MIC) amounted to 0.5 µg/mL in the assay on Escherichia coli [1]; 0.1 µg/mL in the assay with Staphylococcus aureus [2]; 30 µg/mL in the assay with Clostridium perfringens; 2 µg/mL with Enterococcus faecalis; 0.5 µg/mL in the assay with Escherichia coli [3]; 0.12 µg/mL in the assay on Staphylococcus aureus [4].
